Reference: patent US20230100941A1, “MOLECULES TARGETING MUTANT RAS PROTEIN” (AELIN THERAPEUTICS, priority 2020, published 2023)
Ends that are not written are not given here.

Legend:
G12V mutant KRAS = target: T1, G12V mutant KRAS (Homo sapiens, UniProt P01116, G12V); experiment: In vitro translation assay with streptavidin pull-down of biotinylated pept-ins, Western blot for KRAS; assay type: binding; conditions: 10 μM biotinylated pept-in
T1 construct: made in house; host or cells: cell-free: PURExpress In Vitro Protein Synthesis Kit (New England Biolabs), linear T7 PCR template
Experimental: (§1) In vitro translation assays were performed using the PURExpress® In Vitro Protein Synthesis Kit (New England Biolabs) according to the manufacturer's instructions. Briefly, linear DNA fragments containing T7 promotor and terminator sequences flanking the KRAS coding sequence were generated using PCR and purified using the MinElute PCR Purification Kit (Qiagen). 250 ng of linear DNA was subsequently used for the in vitro translation reaction, which was performed for 2 hours at 37° C. with shaking (1000 rpm). Indicated biotinylated pept-ins were mixed in the translation reactions from a 5 mM stock solution in 6M Urea to a final concentration of 10 μM. Upon completion of the translation reaction, biotinylated pept-ins were captured from the reaction mix using Streptavidin coated beads (Pierce) during 90 min at room temperature. Beads were next washed with TBS containing 0.1% Tween 20 and bound proteins were finally boiled off in 1×SDS loading dye (Bio-Rad) in TBS buffer. Proteins were resolved using Any kD 15-well Mini-PROTEAN gels (Bio-Rad) during SDS-PAGE and probed for KRAS after Western blotting using a mouse monoclonal KRAS-specific antibody (SC-30, Santa Cruz Biotechnology), which was detected with an HRP-coupled anti-mouse secondary antibody using chemiluminescence on a Bio-Rad Chemidoc MP imaging instrument.
(§2) To mimic this in vitro, we devised an in vitro translation setup producing either wild-type or mutant (G12V, G12C, G12D or G13D) KRAS in the presence of biotinylated RAS-targeting pept-ins. This allowed us to perform a streptavidin pull-down to capture the biotinylated pept-ins from the translation reaction and perform SDS-PAGE and Western blotting to probe the pulled-down fraction for the presence of KRAS. The biotinylated version of pept-in 04-004-N001, i.e. 04-004-N011, which harbours an APR window sequence derived from a wild-type APR, is predicted to target all RAS proteins independently from their mutation status.

G12C mutant KRAS = target: T2, G12C mutant KRAS (Homo sapiens, UniProt P01116, G12C); experiment: as above; assay type: binding; conditions: 10 μM biotinylated pept-in
T2 construct: made in house; host or cells: cell-free: PURExpress In Vitro Protein Synthesis Kit (New England Biolabs), linear T7 PCR template
Experimental: as §1, §2

[1] = Single-dose viability screen on adherently growing (2D) NCI-H441 cells (CellTiter Blue); assay type: cell-based, human; conditions: 25 μM single dose, adherent NCI-H441, compared to vehicle (30 mM Urea); read-out: decrease in viability after 4 days of exposure
Experimental: For the single-dose viability screen on adherent cells, 4000 cells were seeded per well in black μclear® Cellstar® F-bottom 96-well plates (Greiner) in 100 μL full growth medium. The day after seeding, growth medium was replaced with full growth medium containing the indicated pept-in at a fixed final dose of 25 μM. Technical duplicates were included for all experimental pept-in conditions. 2 and 4 days after treatment viability was assessed using the CellTiter Blue reagent (Promega) according to the manufacturer's instructions, with the following adaptation: CellTiter Blue reagent was diluted 1 in 2 in PBS. Readout was performed on a Clariostar plate reader (BMG). Dose-response assays were performed with the following adaptations: pept-ins were tested in dose-response using a 1 in 2 dilution series with 50 μM being the highest final concentration used. Furthermore, a single viability read-out was performed 3 days after treatment using the Celltiter Glo reagent (Promega) according to the manufacturer's instructions, with the following adaptation: CellTiter Glo reagent was diluted 1 in 4 in PBS.
To assess pept-in activity on the viability of RAS-mutant tumor cells, we used adherent NCI-H441 lung adenocarcinoma cells which harbor a G12V mutation in KRAS. To verify that this cell line was indeed dependent on KRAS for its growth, we used SAH-SOS-1A as a positive control. SAH-SOS-1A is a peptidic compound whose design is based on a stabilized helix from son of sevenless 1, the canonical guanine exchange factor for KRAS (Leshchiner et al. Proc Natl Acad Sci U S A. 2015, vol. 112(6), 1761-6).
Pept-ins were screened at a single dose of 25 μM (corresponds to final concentration of 30 mM Urea) and viability was measured after 2 and 4 days of exposure using the CellTiter Blue reagent. […] Hit rates and potencies for the other templates tested were considerably lower. […] One of these pept-ins (04-004-N001) harbours an APR window sequence derived from another APR of RAS, that is thus present in both G12 mutant and wild-type RAS, while the other four pept-ins (04-006-N001, 04-014-N001, 04-015-N001 and 04-033-N001) harbour an APR window sequence that is derived from and contains a G12V mutant site.

SW620 tumor = experiment: In vivo SW620 xenograft model of human KRAS G12V colorectal cancer; set-up: species or system mouse; conditions: for average tumor volume at day 22, 20 μg dosing group / average tumor volume at day 22, 200 μg dosing group: intratumoral injection three times per week
Experimental: Female NCr nu/nu mice (8 to 12 weeks) were inoculated with 1×10^6 SW620 tumor cells in 50% Matrigel subcutaneously in the hind flank. The cell Injection Volume was 0.1 mL/mouse. When tumors reached an average size of 100-150 mm^3 a pair match was performed, and treatment started. Group sizes were N=6 for the non-treated group, N=5 for the vehicle groups and N=8 for the pept-in and positive control groups. Tumor growth was monitored by caliper measurement twice per week. Model response was monitored by Irinotecan dosed once per week at 100 mg/kg intraperitoneally for 3 weeks.
To assess whether the RAS-targeting pept-ins are able to attenuate growth of KRAS G12V-driven tumors in vivo, a subcutaneous xenograft model of human KRAS G12V colorectal cancer (SW620) was used. Once the tumors reached 100-150mm^3 in size, pept-ins were administered directly into the tumor mass by intratumoral injection three times per week during two weeks at two different doses (20 μg and 200μg).

[2] = tested on: RASless MEFs expressing KRAS G12V; experiment: Spheroid efficacy on RASless MEF panel; assay type: cell-based, mouse; conditions: spheroids, 5 days of exposure
Experimental: (§3) For the single-dose viability screen on spheroid cultures, 1000 cells were seeded per well in black Ultra-Low Attachment (ULA) round-bottom 96-well plates (Corning) in 75 μL full growth medium. The day after seeding, spheroids were treated by addition of 50 µl of full growth medium containing the indicated test compounds so that the final concentration after adding was 25 μM. Technical duplicates were included for all experimental pept-in conditions 5 days after treatment viability was assessed using the CellTiter Glo 3D reagent (Promega) according to the manufacturer's instructions, with the following adaptation: 80 μL of reagent was added per well. Readout was performed on a Clariostar plate reader (BMG). For dose-response assays using RASless MEFs, cells were seeded at 1000 (G12V and G12C) or 2000 (wild-type and BRAF V600E) in Matrigel-containing medium, in order to obtain equally viable spheroids at start of treatment, 24 hrs later. […]
RAS mutant-selectivity on cellular efficacy was assessed using the isogenic RASless mouse embryonic fibroblast (MEF) panel. […] The panel assessed included the common clinical KRAS variants expressed as transgene (WT, G12V and G12C) and an additional cell line dependent on the expression of BRAF V600E for proliferation.
Efficacy of RAS-targeting pept-ins on MEFs growing as spheroids was assessed after 5 days of exposure. […]

[3] = tested on: NCI-H441 cells growing as suspension spheroid cultures; experiment: Single-dose viability screen on NCI-H441 suspension spheroid cultures (3D, CellTiter Glo 3D); assay type: cell-based, human; conditions: 25 μM single dose, 5 days
Experimental: as §3, with “(BMG).” for “(BMG). For dose-response assays using RASless MEFs, cells were seeded at 1000 (G12V and G12C) or 2000 (wild-type and BRAF V600E) in Matrigel-containing medium, in order to obtain equally viable spheroids at start of treatment, 24 hrs later.”
As previous reports have shown that adherent growth of KRAS mutant cells lines might attenuate their sensitivity to KRAS inhibition or knockdown (Fujita-Sato et al. Cancer Res. 2015, vol. 75, 2851-62; Patricelli et al. Cancer Discov. 2016, vol. 6, 316-29; Vartanian et al. J Biol Chem. 2013, vol. 288, 2403-13), we complemented the screen on adherently growing NCI-H441 cells with a screen on suspension spheroid cultures of the same cell line. […] Viability of the spheroid cultures was determined after 5 days of exposure using the CellTiter Glo 3D reagent from Promega. […]

Compound | pull-down of G12V mutant KRAS (G12V mutant KRAS) | cytotoxicity [1] [%] | other results
04-006-N007: biotinylated version of a biologically active pept-in harbouring an APR window containing the G12V mutant site (KVVVGAVKGSKVVVGAVK; also: biotinylated, site not given here) | notable pull-down was only observed for the G12V mutant KRAS |  | 
04-015-N026: biotinylated version of a biologically active pept-in harbouring an APR window containing the G12V mutant site (KVVVGAVGKGSKVVVGAVGK; also: biotinylated, site not given here) | notable pull-down |  | pull-down of G12C mutant KRAS (G12C mutant KRAS): notable pull-down
04-033-N003: biotinylated version of a biologically active pept-in harbouring an APR window containing the G12V mutant site (KVVVGAVGVGKGSKVVVGAVGVGK; also: biotinylated, site not given here) | notable pull-down was only observed for the G12V mutant KRAS |  | 
CC(=O)N[C@@H](CCCCN)C(=O)N[C@H](C(=O)N[C@H](C(=O)N[C@H](C(=O)NCC(=O)N[C@@H](C)C(=O)N[C@H](C(=O)NCC(=O)N[C@@H](CCCCN)C(=O)NCC(=O)N[C@@H](CO)C(=O)N[C@@H](CCCCN)C(=O)N[C@H](C(=O)N[C@H](C(=O)N[C@H](C(=O)NCC(=O)N[C@@H](C)C(=O)N[C@H](C(=O)NCC(=O)N[C@@H](CCCCN)C(N)=O)C(C)C)C(C)C)C(C)C)C(C)C)C(C)C)C(C)C)C(C)C)C(C)C [04-015-N001] |  | ≥ 75 | average tumor volume at day 22, 20 μg dosing group (SW620 tumor): significant reduction in average tumor volume; average tumor volume at day 22, 200 μg dosing group (SW620 tumor): significant reduction in average tumor volume; reduction in tumor growth (comparison between pept-ins) (SW620 tumor; intratumoral injection, 20 μg and 200 μg): strongest reduction in tumor growth
Ac-KLSVFAIKGSKLSVFAIK-NH2 [04-004-N001] |  | ≥ 75 | efficacy on MEFs expressing KRAS G12V [2]: notable increased efficacy; average tumor volume at day 22, 20 μg dosing group (SW620 tumor): only significant for the 200 μg dosing group; average tumor volume at day 22, 200 μg dosing group (SW620 tumor): significant
Ac-KLVVVGAVKGSKLVVVGAVK-NH2 [04-014-N001] |  | ≥ 75 | activity in the spheroid setting [3]: did not display activity
Ac-KVVVGAVGVGKGSKVVVGAVGVGK-NH2 [04-033-N001] |  | ≥ 75 | 
Ac-KVVVGAVKGSKVVVGAVK-NH2 [04-006-N001] |  | ≥ 75 | 
